Measured values as given in article PMC7247818, “Demonstration of Binding Induced Structural Plasticity in a SH2 Domain” (Frontiers in Molecular Biosciences, 2020).
Where a SMILES comes first, the peptide text is derived from it.

Columns and labels:
Settings in all cases: 10°C
[1] = biological target: T1, N-SH2 domain of PI3K, I62V variant (Homo sapiens, UniProt P27986, I383V); experiment: Stopped-flow binding kinetics, N-SH2 I62V
T1 construct: made in house
Protocol: (§1) N-SH2 wild-type and all the site-directed variants were expressed and purified as described previously ([Visconti et al., 2019]). All the mutants were obtained using a QuickChange Lightning Site-Directed Mutagenesis kit (Agilent technologies), accordingly to manufacturer instructions. Peptides with sequence TNSEDNpYVPMNPG mimicking wild-type Gab2 and TNSEDNpYVPANPG mimicking the M457A variant of Gab2 were purchased from GenScript Biotech Corporation.
(§2) Binding kinetics experiments were performed using a single-mixing SX-18 stopped-flow instrument (Applied Photophysics); all binding experiments were conducted in 50 mM Hepes pH 7.4 300 mM NaCl at 10°C. Excitation was at 280 nm and emission was collected using a […] cut-off glass filter. Pseudo-first order binding experiments were performed mixing a constant concentration of dansylated Gab2_448–460 and Gab2_448–460 M457A (1 μM) vs. N-SH2 wt and its mutants at concentrations ranging from […]. For each N-SH2 concentration, usually 5 individual traces were averaged and in all cases the fluorescence time courses obtained was satisfactorily fitted by using a single exponential equation.
(§3) One of the aims of this study is to depict the molecular details of the interaction between the N-SH2 domain of PI3K and Gab2. A powerful strategy to achieve this goal relies on perturbing the system by producing conservative site-directed variants while monitoring the effect of mutations on the association and dissociation rate constants between the interacting partners (kon and koff respectively). Thus, we designed and successfully produced 21 site-directed variants of the N-SH2 domain and challenged them vs. a peptide mimicking the region of Gab2 ranging from residue 448–460 (Gab2_448–460), containing the pY-X-X-M motif that is specifically recognized by the N-SH2 domain ([Waksman et al., 1992]; [Songyang et al., 1993]). The choise of mutations was designed in analogy to phi-value analysis methodology in protein folding studies ([Fersht and Sato, 2004]). […] To monitor binding by fluorescence, a dansyl group was added at the N-terminus of the peptide. The binding reaction was monitored by stopped-flow experiments following the change in FRET signal, taking advantage of the two Trp residues on the N-SH2 domain in positions 12 and 14 as fluorescence donor and the dansyl group on Gab2_448–460 as acceptor. The experiments were performed in pseudo-first order conditions with Gab2_448–460 at fixed concentration of 1 μM rapidly mixed vs. large excess of N-SH2 wt and its variants, ranging from 4 to 14 μM, in buffer Hepes 50 mM, NaCl 300 mM, pH 7.4, at 10°C.
(§4) with kon being the slope of the line and koff the intercept with the y-axis. Since indirect calculation of koff obtained by extrapolation is associated with high experimental error, we performed displacement experiments to directly measure koff by challenging a pre-incubated complex of dansylated Gab2_448–460 and N-SH2 domain both at the concentration of 1 μM vs. a large excess of non-dansylated Gab2_448–460 (50 μM). Kinetic parameters extracted from data together with the calculated changes in activation and equilibrium free energies are reported in Table 1. Analysis of kinetic data highlights that T48S, L51A, and L59A variations cause a detectable decrease of the affinity of the domain for Gab2_448–460 of ∼10-fold, affecting both the kon and koff. […] Since L99 residue is part of the binding pocket, this dramatic effect on the binding affinity is expected.
(§5) SH2 domains bind ligands with a phosphorylated tyrosine in their sequence. The N-SH2 domain of PI3K is known to recognize a specific consensus sequences that present a methionine in position +3 in respect to the phosphotyrosine (M457 in Gab2). […]

[2] = biological target: T2, N-SH2 domain of PI3K, T76S variant (Homo sapiens, UniProt P27986, T397S); experiment: Stopped-flow binding kinetics, N-SH2 T76S
T2 construct: made in house
Protocol: as §1, §2, §3, §4, §5

[3] = biological target: T3, N-SH2 domain of PI3K, I60V variant (Homo sapiens, UniProt P27986, I381V); experiment: Stopped-flow binding kinetics, N-SH2 I60V
T3 construct: made in house
Protocol: as §1, §2, §3, §4, §5

[4] = biological target: T4, N-SH2 domain of PI3K, V81A variant (Homo sapiens, UniProt P27986, V402A); experiment: Stopped-flow binding kinetics, N-SH2 V81A
T4 construct: made in house
Protocol: as §1, §2, §3, §4, §5

[5] = biological target: T5, N-SH2 domain of PI3K, L51A variant (Homo sapiens, UniProt P27986, L372A); experiment: Stopped-flow binding kinetics, N-SH2 L51A
T5 construct: made in house
Protocol: as §1, §2, §3, §4, §5

[6] = biological target: T6, N-SH2 domain of PI3K, V80A variant (Homo sapiens, UniProt P27986, V401A); experiment: Stopped-flow binding kinetics, N-SH2 V80A
T6 construct: made in house
Protocol: as §1, §2, §3, §4, §5

[7] = biological target: T7, N-SH2 domain of PI3K, L75A variant (Homo sapiens, UniProt P27986, L396A); experiment: Stopped-flow binding kinetics, N-SH2 L75A
T7 construct: made in house
Protocol: as §1, §2, §3, §4, §5

[8] = biological target: T8, N-SH2 domain of PI3K, A30G variant (Homo sapiens, UniProt P27986, A351G); experiment: Stopped-flow binding kinetics, N-SH2 A30G
T8 construct: made in house
Protocol: as §1, §2, §3, §4, §5

[9] = biological target: T9, N-SH2 domain of PI3K, T29S variant (Homo sapiens, UniProt P27986, T350S); experiment: Stopped-flow binding kinetics, N-SH2 T29S
T9 construct: made in house
Protocol: as §1, §2, §3, §4, §5

[10] = biological target: T10, N-SH2 domain of PI3K, T33S variant (Homo sapiens, UniProt P27986, T354S); experiment: Stopped-flow binding kinetics, N-SH2 T33S
T10 construct: made in house
Protocol: as §1, §2, §3, §4, §5

[11] = biological target: T11, N-SH2 domain of PI3K, T50S variant (Homo sapiens, UniProt P27986, T371S); experiment: Stopped-flow binding kinetics, N-SH2 T50S
T11 construct: made in house
Protocol: as §1, §2, §3, §4, §5

[12] = biological target: T12, N-SH2 domain of PI3K, I17V variant (Homo sapiens, UniProt P27986, I338V); experiment: Stopped-flow binding kinetics, N-SH2 I17V
T12 construct: made in house
Protocol: as §1, §2, §3, §4, §5

[13] = biological target: T13, N-SH2 domain of PI3K, V101A variant (Homo sapiens, UniProt P27986, V422A); experiment: Stopped-flow binding kinetics, N-SH2 V101A
T13 construct: made in house
Protocol: as §1, §2, §3, §4, §5

[14] = biological target: T14, N-SH2 domain of PI3K, P74A variant (Homo sapiens, UniProt P27986, P395A); experiment: Stopped-flow binding kinetics, N-SH2 P74A
T14 construct: made in house
Protocol: as §1, §2, §3, §4, §5

N-SH2 domain of PI3K, WT = biological target: T15, N-SH2 domain of PI3K, WT (Homo sapiens, UniProt P27986); experiment: Stopped-flow binding kinetics, N-SH2 WT
T15 construct: made in house
Protocol: as §1, §2, §3, §4, §5

[15] = biological target: T16, N-SH2 domain of PI3K, L104A variant (Homo sapiens, UniProt P27986, L425A); experiment: Stopped-flow binding kinetics, N-SH2 L104A
T16 construct: made in house
Protocol: as §1, §2, §3, §4, §5

[16] = biological target: T17, N-SH2 domain of PI3K, V22A variant (Homo sapiens, UniProt P27986, V343A); experiment: Stopped-flow binding kinetics, N-SH2 V22A
T17 construct: made in house
Protocol: as §1, §2, §3, §4, §5

[17] = displacement experiment, pH 7.4, 300 mM NaCl
[18] = stopped-flow FRET, 1 μM dansylated peptide, 50 mM Hepes pH 7.4, 300 mM NaCl
[19] = stopped-flow kinetics, pH 7.4, 300 mM NaCl

T5 sequence (P27986 333-428 L372A): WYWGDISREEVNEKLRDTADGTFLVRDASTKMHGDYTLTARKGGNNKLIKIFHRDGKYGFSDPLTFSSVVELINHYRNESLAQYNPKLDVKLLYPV
T11 sequence (P27986 333-428 T371S): as the sequence (P27986 333-428 L372A) above, with T39S, A40L counted along it
T12 sequence (P27986 333-428 I338V): as the sequence (P27986 333-428 L372A) above, with I6V, A40L counted along it
T13 sequence (P27986 333-428 V422A): as the sequence (P27986 333-428 L372A) above, with A40L, V90A counted along it
T1 sequence (P27986 333-428 I383V): as the sequence (P27986 333-428 L372A) above, with A40L, I51V counted along it
T14 sequence (P27986 333-428 P395A): as the sequence (P27986 333-428 L372A) above, with A40L, P63A counted along it
T8 sequence (P27986 333-428 A351G): as the sequence (P27986 333-428 L372A) above, with A19G, A40L counted along it
T2 sequence (P27986 333-428 T397S): as the sequence (P27986 333-428 L372A) above, with A40L, T65S counted along it
T17 sequence (P27986 333-428 V343A): as the sequence (P27986 333-428 L372A) above, with V11A, A40L counted along it
T9 sequence (P27986 333-428 T350S): as the sequence (P27986 333-428 L372A) above, with T18S, A40L counted along it
T4 sequence (P27986 333-428 V402A): as the sequence (P27986 333-428 L372A) above, with A40L, V70A counted along it
T15 sequence (P27986 333-428 limits assumed): as the sequence (P27986 333-428 L372A) above, with A40L counted along it
T6 sequence (P27986 333-428 V401A): as the sequence (P27986 333-428 L372A) above, with A40L, V69A counted along it
T7 sequence (P27986 333-428 L396A): as the sequence (P27986 333-428 L372A) above, with A40L, L64A counted along it
T3 sequence (P27986 333-428 I381V): as the sequence (P27986 333-428 L372A) above, with A40L, I49V counted along it
T10 sequence (P27986 333-428 T354S): as the sequence (P27986 333-428 L372A) above, with T22S, A40L counted along it
T16 sequence (P27986 333-428 L425A): as the sequence (P27986 333-428 L372A) above, with A40L, L93A counted along it

CC(C)[C@H](NC(=O)[C@H](Cc1ccc(OP(=O)(O)O)cc1)NC(=O)[C@H](CC(N)=O)NC(=O)[C@H](CC(=O)O)NC(=O)[C@H](CCC(=O)O)NC(=O)[C@H](CO)NC(=O)[C@H](CC(N)=O)NC(=O)[C@@H](N)[C@@H](C)O)C(=O)N1CCC[C@H]1C(=O)N[C@@H](C)C(=O)N[C@@H](CC(N)=O)C(=O)N1CCC[C@H]1C(=O)NCC(=O)O [Gab2_448–460 M457A] (HELM PEPTIDE1{T.N.S.E.D.N.[O=C([C@H](Cc1ccc(OP(=O)(O)O)cc1)N[*:1])[*:2]].V.P.A.N.P.G}$$$$V2.0)
koff [1, 17]: 120 ± 6 s⁻¹
kon [1, 18]: 1.84e+07 ± 1.5e+06 M⁻¹ s⁻¹
Kd [1, 19]: 6.7 ± 0.6 µM
koff [2, 17]: 100 ± 5 s⁻¹
kon [2, 18]: 1.96e+07 ± 2.6e+06 M⁻¹ s⁻¹
Kd [2, 19]: 5 ± 0.7 µM
koff [3, 17]: 80 ± 4 s⁻¹
kon [3, 18]: 1.52e+07 ± 1.5e+06 M⁻¹ s⁻¹
Kd [3, 19]: 5 ± 0.6 µM
koff [4, 17]: 90 ± 5 s⁻¹
kon [4, 18]: 2.05e+07 ± 3.8e+06 M⁻¹ s⁻¹
Kd [4, 19]: 4.5 ± 0.9 µM
koff [5, 17]: 160 ± 8 s⁻¹
kon [5, 18]: 2.12e+07 ± 3.3e+06 M⁻¹ s⁻¹
Kd [5, 19]: 7.6 ± 1.2 µM
koff [6, 17]: 130 ± 6 s⁻¹
kon [6, 18]: 2.23e+07 ± 5.4e+06 M⁻¹ s⁻¹
Kd [6, 19]: 5.6 ± 1.4 µM
koff [7, 17]: 110 ± 5 s⁻¹
kon [7, 18]: 1.88e+07 ± 3.2e+06 M⁻¹ s⁻¹
Kd [7, 19]: 5.7 ± 1 µM
koff [8, 17]: 90 ± 4 s⁻¹
kon [8, 18]: 1.71e+07 ± 2.2e+06 M⁻¹ s⁻¹
Kd [8, 19]: 5.1 ± 0.7 µM
koff [9, 17]: 80 ± 4 s⁻¹
kon [9, 18]: 1.97e+07 ± 2.7e+06 M⁻¹ s⁻¹
Kd [9, 19]: 4 ± 0.6 µM
koff [10, 17]: 80 ± 4 s⁻¹
kon [10, 18]: 2.06e+07 ± 2.9e+06 M⁻¹ s⁻¹
Kd [10, 19]: 3.8 ± 0.6 µM
koff [11, 17]: 140 ± 7 s⁻¹
kon [11, 18]: 2.02e+07 ± 2e+06 M⁻¹ s⁻¹
Kd [11, 19]: 6.8 ± 0.8 µM
koff [12, 17]: 90 ± 5 s⁻¹
kon [12, 18]: 2.2e+07 ± 2.3e+06 M⁻¹ s⁻¹
Kd [12, 19]: 4.3 ± 0.5 µM
koff [13, 17]: 170 ± 9 s⁻¹
kon [13, 18]: 1.42e+07 ± 1.7e+06 M⁻¹ s⁻¹
Kd [13, 19]: 12 ± 1 µM
koff [14, 17]: 60 ± 3 s⁻¹
kon [14, 18]: 2.25e+07 ± 1.9e+06 M⁻¹ s⁻¹
Kd [14, 19]: 2.6 ± 0.3 µM
koff (N-SH2 domain of PI3K, WT; displacement of 1 μM complex by 50 μM non-dansylated Gab2_448–460, 50 mM Hepes pH 7.4, 300 mM NaCl): 80 ± 4 s⁻¹
Kd (N-SH2 domain of PI3K, WT; from stopped-flow kinetics, pH 7.4, 300 mM NaCl): 3.7 ± 0.4 µM
kon (N-SH2 domain of PI3K, WT; stopped-flow FRET, 1 μM dansylated peptide vs excess N-SH2, 50 mM Hepes pH 7.4, 300 mM NaCl, slope of kobs): 2.15e+07 ± 2.4e+06 M⁻¹ s⁻¹
koff [15, 17]: 110 ± 6 s⁻¹
kon [15, 18]: 2.21e+07 ± 1.4e+06 M⁻¹ s⁻¹
Kd [15, 19]: 5.2 ± 0.4 µM
koff [16, 17]: 170 ± 9 s⁻¹
kon [16, 18]: 1.77e+07 ± 2.6e+06 M⁻¹ s⁻¹
Kd [16, 19]: 9.7 ± 1.5 µM
